These results are taken from patent US12643867B2, “Compositions and uses thereof” (University of Virginia Patent Foundation, priority 2017, dated 2026).

For assay [1], the target named is T1, FER (Proto-oncogene tyrosine-protein kinase FER) (Homo sapiens, UniProt P16591).
T1 construct: measured against >50 native kinases quantified in HEK293T soluble proteomes; endogenous in cells; host or cells: HEK293T soluble proteome
The experiment in a line: SILAC LC-MS ATP acyl phosphate probe competition, native kinases in HEK293T. Type of assay: binding. Conditions: site Lys1 (K591); ATP 1 mM; Ketanserin, Ritanserin 100 μM; RF001 1 mM. Summed up: (§1)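 HEK293T SILAC proteomes, 2 mg/ml; heavy + compound (from 50× DMSO stock), light + DMSO, 30 min, 25° C. Mix 1:1, MeOH/CHCl3 extraction, DTT/iodoacetamide, trypsin/Lys-C 3 h 37° C. Avidin enrichment of desthiobiotin-modified peptides; Orbitrap Q Exactive Plus LC-MS, top-10 DDA.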

The target of assay [2] is T2, LATS1 (Serine/threonine-protein kinase LATS1) (Homo sapiens, UniProt O95835).
T2 construct: Native kinases; endogenous in cells; host or cells: HEK293T soluble proteome
T2 sequence (O95835 1-1130): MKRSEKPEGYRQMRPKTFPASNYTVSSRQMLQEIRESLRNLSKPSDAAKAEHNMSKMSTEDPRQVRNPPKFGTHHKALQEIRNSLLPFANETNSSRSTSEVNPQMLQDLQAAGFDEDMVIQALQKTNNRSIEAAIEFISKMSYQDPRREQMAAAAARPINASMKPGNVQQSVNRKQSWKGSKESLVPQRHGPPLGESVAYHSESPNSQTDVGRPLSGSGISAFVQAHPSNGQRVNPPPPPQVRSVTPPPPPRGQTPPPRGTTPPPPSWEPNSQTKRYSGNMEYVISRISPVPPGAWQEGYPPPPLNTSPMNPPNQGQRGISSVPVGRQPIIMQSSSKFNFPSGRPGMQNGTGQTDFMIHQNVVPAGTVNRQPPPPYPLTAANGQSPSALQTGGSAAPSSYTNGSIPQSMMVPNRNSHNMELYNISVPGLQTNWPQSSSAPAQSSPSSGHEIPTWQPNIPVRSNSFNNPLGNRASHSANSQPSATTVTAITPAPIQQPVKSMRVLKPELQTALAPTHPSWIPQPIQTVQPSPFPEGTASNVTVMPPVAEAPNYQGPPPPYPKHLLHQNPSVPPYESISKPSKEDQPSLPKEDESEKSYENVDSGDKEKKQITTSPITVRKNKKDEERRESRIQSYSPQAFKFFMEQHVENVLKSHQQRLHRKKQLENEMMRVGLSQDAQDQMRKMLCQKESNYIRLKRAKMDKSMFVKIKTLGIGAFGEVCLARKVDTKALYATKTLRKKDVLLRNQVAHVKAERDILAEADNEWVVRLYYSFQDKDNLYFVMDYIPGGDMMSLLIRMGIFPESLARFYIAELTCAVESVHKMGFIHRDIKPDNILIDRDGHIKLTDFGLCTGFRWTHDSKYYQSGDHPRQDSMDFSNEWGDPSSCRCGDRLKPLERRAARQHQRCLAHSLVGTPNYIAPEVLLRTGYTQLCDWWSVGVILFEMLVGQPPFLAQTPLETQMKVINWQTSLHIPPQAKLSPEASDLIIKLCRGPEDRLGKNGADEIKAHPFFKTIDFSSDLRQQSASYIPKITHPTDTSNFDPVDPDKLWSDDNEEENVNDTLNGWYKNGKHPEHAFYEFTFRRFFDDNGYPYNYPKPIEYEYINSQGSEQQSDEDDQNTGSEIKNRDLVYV
The description is as above. The assay is classed as binding. Particulars: site Lys1; ATP 1 mM; Ketanserin, Ritanserin 100 μM; RF001 1 mM. Summed up: as §1

T1 sequence (P16591 whole entry): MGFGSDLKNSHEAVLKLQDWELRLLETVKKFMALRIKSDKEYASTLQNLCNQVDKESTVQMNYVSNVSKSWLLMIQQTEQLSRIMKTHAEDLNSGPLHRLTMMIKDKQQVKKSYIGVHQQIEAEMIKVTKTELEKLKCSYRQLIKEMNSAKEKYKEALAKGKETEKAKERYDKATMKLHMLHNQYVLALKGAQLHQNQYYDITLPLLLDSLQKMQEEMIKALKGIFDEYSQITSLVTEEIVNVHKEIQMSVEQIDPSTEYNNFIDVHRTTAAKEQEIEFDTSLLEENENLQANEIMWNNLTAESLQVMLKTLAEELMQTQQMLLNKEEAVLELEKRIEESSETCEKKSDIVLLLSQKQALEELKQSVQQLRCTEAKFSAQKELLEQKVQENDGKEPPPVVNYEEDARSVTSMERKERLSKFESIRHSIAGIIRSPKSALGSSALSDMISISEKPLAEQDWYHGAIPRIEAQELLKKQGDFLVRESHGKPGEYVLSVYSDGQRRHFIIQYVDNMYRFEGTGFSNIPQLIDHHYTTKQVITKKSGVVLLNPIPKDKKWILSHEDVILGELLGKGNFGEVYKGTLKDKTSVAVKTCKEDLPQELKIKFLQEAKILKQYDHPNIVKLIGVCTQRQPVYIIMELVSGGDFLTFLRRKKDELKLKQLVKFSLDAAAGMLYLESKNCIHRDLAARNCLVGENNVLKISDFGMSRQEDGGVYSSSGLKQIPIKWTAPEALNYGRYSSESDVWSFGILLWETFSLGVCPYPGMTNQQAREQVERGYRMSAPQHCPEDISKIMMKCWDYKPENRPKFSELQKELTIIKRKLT

In the case of `Cc1nc2sccn2c(=O)c1CCN1CCC(=C(c2ccc(F)cc2)c2ccc(F)cc2)CC1` [Ritanserin], the “SILAC ratio, FER probe-modified peptide” value in assay [1] was 7.9. Besides, the “SILAC ratio, LATS1 probe-modified peptide” value in assay [2] is listed as 1.8.

With `Fc1ccc(C(=C2CCNCC2)c2ccc(F)cc2)cc1` [RF001, 4-(Bis(4-fluorophenyl)methylene) piperidine], the “SILAC ratio, FER probe-modified peptide” value in assay [1] was found to be 1.2. The “SILAC ratio, LATS1 probe-modified peptide” value in assay [2] amounted to 1.4.

Turning to `O=C(c1ccc(F)cc1)C1CCN(CCn2c(=O)[nH]c3ccccc3c2=O)CC1` [Ketanserin], the “SILAC ratio, FER probe-modified peptide” value in assay [1] is reported as 1.4. Also, the “SILAC ratio, LATS1 probe-modified peptide” value in assay [2] amounted to 1.2.
